Values after ≈ are worked out from the molar mass of the structure shown.
Legend:
Experiment in all cases: Proliferation inhibition of cancer cells (propidium iodide fluorescence)
Format in all cases: cell-based, human
CNXF 498NL = settings: Glioblastoma, CNXF 498NL cell line
Method: (§1) Using various human cancer cells in vitro, the concentrations of the test compounds (A, B, C, D, E, F), which inhibit the proliferation of cancer cells by 50% (IC50) and 70% (IC70) were determined. Specifically, each cell line of bladder cancer (BXF 1218L and T-24), glioblastoma (CNXF 498NL), colic cancer (HCT-116 and HT-29), gastric cancer (GXF 251 L), head and neck cancer (HNXF 536L), non small cell lung cancer (LXF 1121L, LXF 289L, LXF 526L, LXF 529L, LXF 629L and H-460), mammary cancer (MAXF 401NL, MCF-7, MDA-231 and MDA-468), melanoma (MEXF 276L, MEXF 394NL, MEXF 462NL, MEXF 514L and MEXF 520L), ovary cancer (OVXF 1619L, OVXF 899L and OVCAR-3), pancreatic cancer (PAXF 1657L and PANC-1), prostate cancer (22Rv1, DU-145, LNCaP and PC3M), pleuramesothelioma (PXF 1752L), renal cancer (RXF 1781 L, RXF 393NL, RXF 486L and RXF 944L), and uterine cancer (UXF 1138L) is added to a 96-well microtiter plate at a density of 3.6-11.2x10^3 cells per well in RPMI-1640 medium containing 10% fetal calf serum and 0.1% gentamicin and incubated for 24 hours. After 24 hours RPMI-1640 medium containing 10% fetal calf serum and 0.1% gentamicin, together with a test compound, is added thereto. Then, this plate is incubated at 37°C for 4 days in a humidified atmosphere of air containing 5% CO2. Thereafter, the cell culture medium with or without drug was replaced by 200 µl of an aqueous PI solution (7 µg/ml propidium iodide). Applying a freeze thaw cycle to permeabilize intact cell walls, staining of DNA was achieved, and the fluorescence of each well was measured using the Cy-tofluor 4000 microplate reader (excitation 530 nm, emission 620 nm), giving a direct relationship to the total cell number. Proliferation inhibition is expressed as test versus untreated control (T/C-value [%]). IC50 and IC70 values were determined by plotting compound concentration versus cell viability.

DU-145 = settings: Prostate, DU-145 cell line
Method: as §1

HNXF 536L = settings: Head and Neck, HNXF 536L cell line
Method: as §1

HT-29 = settings: Colon, HT-29 cell line
Method: as §1

LNCaP = settings: Prostate, LNCaP cell line
Method: as §1

LXFA 1121 L = settings: Lung, non small cell, LXFA 1121 L cell line
Method: as §1

LXFA 526L = settings: Lung, non small cell, LXFA 526L cell line
Method: as §1

LXFA 629L = settings: Lung, non small cell, LXFA 629L cell line
Method: as §1

MAXF 401NL = MAXF 401NL cell line
Method: as §1

MCF-7 = settings: Breast, MCF-7 cell line
Method: as §1

MDA-468 = settings: Breast, MDA-468 cell line
Method: as §1

MEXF 276L = settings: Melanoma, MEXF 276L cell line
Method: as §1

MEXF 394NL = settings: Melanoma, MEXF 394NL cell line
Method: as §1

MEXF 462NL = MEXF 462NL cell line
Method: as §1

MEXF 514L = settings: Melanoma, MEXF 514L cell line
Method: as §1

PANC-1 = settings: Pancreas, PANC-1 cell line
Method: as §1

PAXF 1657L = settings: Pancreas, PAXF 1657L cell line
Method: as §1

PC3M = settings: Prostate, PC3M cell line
Method: as §1

PXF 1752L = settings: Pleuramesothelio, PXF 1752L cell line
Method: as §1

RXF 393NL = settings: Kidney, RXF 393NL cell line
Method: as §1

RXF 486L = RXF 486L cell line
Method: as §1

RXF 944L = settings: Kidney, RXF 944L cell line
Method: as §1

T-24 = settings: Bladder, T-24 cell line
Method: as §1

UXF 1138L = UXF 1138L cell line
Method: as §1

With C[C@@H]1CC(=O)[C@@H](O)[C@]2(O1)O[C@@H]1CC(=O)O[C@@H]1C1=C2C(=O)c2c(O)cccc2C1=O [Compound B, 4'-dehydro-deacetylgriseusin A] the IC50 (CNXF 498NL) was 0.107 µg/mL (≈ 0.267 µM), the IC70 (CNXF 498NL) was 0.184 µg/mL (≈ 0.46 µM) and the IC50 (DU-145) was 0.251 µg/mL (≈ 0.627 µM). For the same molecule, the IC70 (DU-145) was 0.669 µg/mL (≈ 1.67 µM), the IC50 (HNXF 536L) was 0.237 µg/mL (≈ 0.592 µM) and the IC70 (HNXF 536L) was 0.716 µg/mL (≈ 1.79 µM). The IC50 (HT-29) was 0.114 µg/mL (≈ 0.285 µM), the IC70 (HT-29) was 0.177 µg/mL (≈ 0.442 µM) and the IC50 (LNCaP) was 0.107 µg/mL (≈ 0.267 µM). The IC70 (LNCaP) was 0.175 µg/mL (≈ 0.437 µM), the IC50 (LXFA 1121 L) was 0.083 µg/mL (≈ 0.207 µM) and the IC70 (LXFA 1121 L) was 0.147 µg/mL (≈ 0.367 µM). The IC50 (LXFA 526L) was 0.129 µg/mL (≈ 0.322 µM), the IC70 (LXFA 526L) was 0.206 µg/mL (≈ 0.515 µM) and the IC50 (LXFA 629L) was 0.234 µg/mL (≈ 0.585 µM). The IC70 (LXFA 629L) was 0.671 µg/mL (≈ 1.68 µM), the IC50 (MAXF 401NL; Breast) was 0.090 µg/mL (≈ 0.225 µM) and the IC70 (MAXF 401NL; Breast) was 0.160 µg/mL (≈ 0.4 µM). For the same molecule, the IC50 value (MAXF 401NL; 4 days) was 0.09 µg/mL (≈ 0.225 µM), the IC50 (MCF-7) was 0.138 µg/mL (≈ 0.345 µM) and the IC70 (MCF-7) was 0.210 µg/mL (≈ 0.525 µM). It also gave an IC50 (MDA-468) of 0.060 µg/mL (≈ 0.15 µM), an IC70 (MDA-468) of 0.127 µg/mL (≈ 0.317 µM) and an IC50 (MEXF 276L) of 0.112 µg/mL (≈ 0.28 µM). It also gave an IC70 (MEXF 276L) of 0.212 µg/mL (≈ 0.53 µM), an IC50 (MEXF 394NL) of 0.035 µg/mL (≈ 0.0874 µM) and an IC70 (MEXF 394NL) of 0.086 µg/mL (≈ 0.215 µM). For the same molecule, the IC50 value (MEXF 462NL; 4 days) was 0.086 µg/mL (≈ 0.215 µM), the IC50 (MEXF 462NL; Melanoma) was 0.086 µg/mL (≈ 0.215 µM) and the IC70 (MEXF 462NL; Melanoma) was 0.158 µg/mL (≈ 0.395 µM). It also gave an IC50 (MEXF 514L) of 0.087 µg/mL (≈ 0.217 µM), an IC70 (MEXF 514L) of 0.149 µg/mL (≈ 0.372 µM) and an IC50 (PANC-1) of 0.117 µg/mL (≈ 0.292 µM). For the same molecule, the IC70 (PANC-1) was 0.200 µg/mL (≈ 0.5 µM), the IC50 (PAXF 1657L) was 0.094 µg/mL (≈ 0.235 µM) and the IC70 (PAXF 1657L) was 0.179 µg/mL (≈ 0.447 µM). It also gave an IC50 (PC3M) of 0.402 µg/mL (≈ 1 µM), an IC70 (PC3M) of 0.929 µg/mL (≈ 2.32 µM) and an IC50 (PXF 1752L) of 0.124 µg/mL (≈ 0.31 µM). For the same molecule, the IC70 (PXF 1752L) was 0.208 µg/mL (≈ 0.52 µM), the IC50 (RXF 393NL) was 0.104 µg/mL (≈ 0.26 µM) and the IC70 (RXF 393NL) was 0.164 µg/mL (≈ 0.41 µM). The IC50 (RXF 486L; Kidney) was 0.078 µg/mL (≈ 0.195 µM), the IC70 (RXF 486L; Kidney) was 0.142 µg/mL (≈ 0.355 µM) and the IC50 value (RXF 486L; 4 days) was 0.078 µg/mL (≈ 0.195 µM). For the same molecule, the IC50 (RXF 944L) was 0.038 µg/mL (≈ 0.0949 µM), the IC70 (RXF 944L) was 0.107 µg/mL (≈ 0.267 µM) and the IC50 (T-24) was 0.507 µg/mL (≈ 1.27 µM). It also gave an IC70 (T-24) of 1.137 µg/mL (≈ 2.84 µM), an IC50 value (UXF 1138L; 4 days) of 0.216 µg/mL (≈ 0.54 µM) and an IC50 (UXF 1138L; Uterus) of 0.216 µg/mL (≈ 0.54 µM). It also gave an IC70 (UXF 1138L; Uterus) of 0.524 µg/mL (≈ 1.31 µM).

From patent publication EP1650209A1, “Griseusin derivatives and their use as antitumor agents” (Oncotest GmbH, priority 2004, dated 2006)
